Results taken from article PMC8097242, “Galectin-4 N-Terminal Domain: Binding Preferences Toward A and B Antigens With Different Peripheral Core Presentations” (Frontiers in Chemistry, 2021).

Legend:
Type in all cases: binding
[1] = target: T1, N-terminal CRD of hGalectin-4 (Gal-4N) (Homo sapiens, UniProt P56470); assay: Isothermal titration calorimetry (ITC); details: for Kd: PBS pH 7.4, single binding site model
T1 construct: N-terminal CRD of hGalectin-4 (amino acids 1–150, including an additional C-terminus His-Tag); His-Tag (C, cleaved yes); made in house; host or cells: E. coli BL21 (pET29b)
T1 sequence (P56470 1-150): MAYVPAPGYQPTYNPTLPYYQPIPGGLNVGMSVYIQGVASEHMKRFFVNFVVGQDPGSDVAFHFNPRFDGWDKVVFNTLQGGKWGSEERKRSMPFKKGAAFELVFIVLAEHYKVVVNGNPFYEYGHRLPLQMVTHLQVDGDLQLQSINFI
Protocol: Isothermal titration calorimetry experiments were performed using the MicroCal PEAQ-ITC calorimeter (Malvern Panalytical, Malvern, United Kingdom). Samples containing 100–200 μM of Gal-4N in PBS (50 mM sodium phosphate, pH 7.4, 300 mM NaCl) were titrated with stocks of 3–10 mM in PBS of glycans 4, 5, 7, 8, 9, and 11. During the automated experiment, small aliquots (2–3 μL) of the sugar stocks were added to the cell containing the lectin. Curve fitting to a single binding site model was performed with the MicroCal Origin 7 software.
Isothermal titratrion calorimetry (ITC). Isothermal Titration Calorimetry experiments were performed using MicroCal PEAQ-ITC calorimeter. Samples containing 100-200 µM of Gal-4N in PBS (50 mM sodium phosphate pH 7.4, 300 mM NaCl) were titrated with stocks of 3-10 mM in PBS of glycans A type 1, A type 2, A type 6, B type 1, B type 2 and B type 6. During the automated experiment, small aliquots (2-3 µL) of the sugar stocks were added to the cell containing the lectin. The association constants and the thermodynamic profile of the binding was calculated from the fitting of the titration data to a single binding site model.

[2] = target: T1, N-terminal CRD of hGalectin-4 (Gal-4N); assay: 1H-15N HSQC NMR-based titrations (chemical shift perturbation) of 15N-labeled Gal-4N; details: for Kd: HSQC NMR-based titration, 50 μM 15N-labeled lectin, 298 K, read-out: KD (μM) (NMR)
Protocol: The molecular recognition event was also analyzed from the perspective of the lectin. Thus, a chemical shift perturbation (CSP) analysis of the changes produced in the ^1H-^15N HSQC spectra recorded for ^15N-labeled Gal-4N upon addition of the different ligands was carried out. This analysis required the NH backbone NMR assignment of the lectin signals, following well-established triple resonance 3D NMR methods (see Materials and methods and Supplementary Information). The assignment protocol allowed assigning 80% of the NH backbone resonances. In addition to the ligands shown in Scheme 1, the corresponding non-fucosylated analogs and the H antigens (devoid of the terminal Gal/GalNAc moieties, see Supplementary Information), as well as lactose, were also employed. Thus, a full comparative analysis on the monosaccharide-specific effects on the lectin CSP was achieved.
The total volume for the NMR samples was 500/μl. The lectin was in phosphate-buffered saline (50 mM sodium phosphate, 150 mM NaCl, pH 7.4), either in D2O or 90:10 H2O:D2O depending on the NMR experiment. The pH was adjusted with the required amount of NaOH and HCl or NaOD and DCl.
experiments were acquired using an 800 MHz Bruker spectrometer with a cryoprobe (Bruker, Billerica, MA, United States). The samples were prepared using 50 μM of the ^15N-labeled lectin in the corresponding buffer in a 90:10 H2O:D2O ratio. The experiments were performed at 298 K. Six to nine points were recorded for each ligand and CSP and KD were calculated using CcpNmr Analysis 2.4.2.

[3] = target: T1, N-terminal CRD of hGalectin-4 (Gal-4N); assay: 1H Saturation Transfer Difference (STD) NMR epitope mapping
Protocol: ^1H-saturation transfer difference NMR spectra were acquired for mixtures of Gal-4N (50 μM) with a 50-fold excess of ligand. Protein aromatic irradiation afforded the best STD intensities and thus these are discussed henceforth. The STD NMR spectra were very similar among the different ligands with respect to both the observed glycan protons and their intensities. […] Severe proton overlapping precluded a full comparison among ligands, but key isolated ^1H NMR resonance signals permitted to highlight evident differences.
All the STD NMR experiments were performed using an 800 MHz Bruker spectrometer with a cryoprobe (Bruker, Billerica, MA, United States). The samples were prepared in the corresponding deuterated buffer. The temperature was 288 K for every experiment. An amount of 50 μM of the lectin with 50 equivalents of the ligand was employed for every experiment except for lactose, for which a 1:70 ratio was used. The STD spectra were acquired with 1,024 scans, 2 s of saturation time using a train of 50 ms Gaussian-shaped pulses, and 3 s of relaxation delay. The spin-lock filter applied to remove the signals of the lectin was set at 40 ms. The on-resonance frequency was set for the aromatic region at 6.58 ppm, while the off-resonance frequency was set at 100 ppm.
Supplementary Table S1. Relative STD-AF (Amplification factor) and STD percentage of each non overlapping proton of each ligand.

[4] = 1H-residue NHAcGlcNAc (B type 1: first of two lines)
[5] = 1H-residue NHAcGlcNAc (B type 1: second of two lines)

CC(=O)N[C@@H]1[C@@H](O[C@@H]2O[C@H](CO)[C@H](O)[C@H](O[C@H]3O[C@H](CO)[C@H](O)[C@H](O)[C@H]3O)[C@H]2O[C@@H]2O[C@@H](C)[C@@H](O)[C@@H](O)[C@@H]2O)[C@H](O)[C@@H](CO)O[C@H]1O [B type-1 (tetra)] was tested, and the “-TΔS (kcal mol^–1) (ITC)” value [1] was 2.3 kcal mol^–1, the “ΔG (kcal mol^–1) (ITC)” value [1] was −5.4 kcal mol^–1 and the “ΔH (kcal mol^–1) (ITC)” value [1] was −7.7 kcal mol^–1. For the same molecule, the Kd [1] was 109 µM, the Kd [2] was 200 µM and the STD% ([3]; 1H-residue H1 Fuc) was 0%. It also gave an STD-AF ([3]; 1H-residue H1 Fuc) of 0.0000, an STD% ([3]; 1H-residue H1Galα) of 56% and an STD-AF ([3]; 1H-residue H1Galα) of 0.0053. The STD% ([3]; 1H-residue H1Galβ) was 70%, the STD-AF ([3]; 1H-residue H1Galβ) was 0.0066 and the STD% ([3]; 1H-residue H1GlcNAc) was 16%. The STD-AF ([3]; 1H-residue H1GlcNAc) was 0.0015, the STD% ([3]; 1H-residue H2Galα) was 35% and the STD-AF ([3]; 1H-residue H2Galα) was 0.0033. It also gave an STD% ([3]; 1H-residue H2GlcNAc) of 29%, an STD-AF ([3]; 1H-residue H2GlcNAc) of 0.0027 and an STD% ([3]; 1H-residue H3GlcNAc) of 38%. For the same molecule, the STD-AF ([3]; 1H-residue H3GlcNAc) was 0.0036, the STD% ([3]; 1H-residue H4Galβ) was 74% and the STD-AF ([3]; 1H-residue H4Galβ) was 0.0070. For the same molecule, the STD% ([3]; 1H-residue H4GlcNAc) was 53%, the STD-AF ([3]; 1H-residue H4GlcNAc) was 0.0050 and the STD% ([3]; 1H-residue H5Galα) was 23%. It also gave an STD-AF ([3]; 1H-residue H5Galα) of 0.0022, an STD% ([3]; 1H-residue H5Galβ) of 100% and an STD-AF ([3]; 1H-residue H5Galβ) of 0.0094. It also gave an STD% ([3]; 1H-residue MetFuc) of 14%, an STD-AF ([3]; 1H-residue MetFuc) of 0.0013 and an STD% [3, 4] of 141%. The STD-AF [3, 4] was 0.0133, the STD% [3, 5] was 59% and the STD-AF [3, 5] was 0.0055. It also gave an STD% ([3]; Average NHAc) of 100% and an STD-AF ([3]; Average NHAc) of 0.0094.

For CC(=O)NC1C(O)OC(CO)C(OC2OC(CO)C(O)C(OC3OC(CO)C(O)C(O)C3O)C2OC2OC(C)C(O)C(O)C2O)C1O (stereo not drawn) [B type-2 (tetra)], the “-TΔS (kcal mol^–1) (ITC)” value [1] was 3.8 kcal mol^–1, the “ΔG (kcal mol^–1) (ITC)” value [1] was −5.5 kcal mol^–1 and the “ΔH (kcal mol^–1) (ITC)” value [1] was −9.3 kcal mol^–1. The Kd [1] was 88 µM, the Kd [2] was 190 µM and the STD% ([3]; 1H-residue H1 Fuc) was 16%. The STD-AF ([3]; 1H-residue H1 Fuc) was 0.0024, the STD% ([3]; 1H-residue H1Galα) was 73% and the STD-AF ([3]; 1H-residue H1Galα) was 0.0108. For the same molecule, the STD% ([3]; 1H-residue H1Galβ) was 59%, the STD-AF ([3]; 1H-residue H1Galβ) was 0.0088 and the STD% ([3]; 1H-residue H1GlcNAc) was 24%. For the same molecule, the STD-AF ([3]; 1H-residue H1GlcNAc) was 0.0035, the STD% ([3]; 1H-residue H3Galβ) was 36% and the STD-AF ([3]; 1H-residue H3Galβ) was 0.0054. For the same molecule, the STD% ([3]; 1H-residue H3GlcNAc) was 36%, the STD-AF ([3]; 1H-residue H3GlcNAc) was 0.0054 and the STD% ([3]; 1H-residue H4Galα) was 18%. For the same molecule, the STD-AF ([3]; 1H-residue H4Galα) was 0.0027, the STD% ([3]; 1H-residue H4Galβ) was 55% and the STD-AF ([3]; 1H-residue H4Galβ) was 0.0081. For the same molecule, the STD% ([3]; 1H-residue H5Galβ) was 100%, the STD-AF ([3]; 1H-residue H5Galβ) was 0.0148 and the STD% ([3]; 1H-residue MetFuc) was 16%. For the same molecule, the STD-AF ([3]; 1H-residue MetFuc) was 0.0023 and the STD-AF [3, 4] was 0.0035.

In the case of CC1OC(OC2C(OC3C(CO)OC(O)C(O)C3O)OC(CO)C(O)C2OC2OC(CO)C(O)C(O)C2O)C(O)C(O)C1O (stereo not drawn) [B type-6 (tetra)], the “-TΔS (kcal mol^–1) (ITC)” value [1] is reported as 6.4 kcal mol^–1, the binding enthalpy [1] is reported as -12.3 kcal/mol and the “ΔG (kcal mol^–1) (ITC)” value [1] is reported as −5.9 kcal mol^–1. The “ΔH (kcal mol^–1) (ITC)” value [1] was −12.3 kcal mol^–1, the “increased affinity of type-6 vs corresponding type-2 antigen” value ([1]; Glc vs GlcNAc at reducing end, β1–4 linked) was “two-fold” and the Kd [1] was 51 µM. For the same molecule, the “fold difference in affinity of the best binder” value ([1]; among tetrasaccharides of Figure 6 (ITC)) was 5 fold, the “fold range of NMR-based binding affinities, best vs worse binder” value ([2]; B-type 6 vs A-type 4) was 20 fold and the Kd [2] was 60 µM. For the same molecule, the STD% ([3]; 1H-residue H1 Fuc) was 28%, the STD-AF ([3]; 1H-residue H1 Fuc) was 0.0105 and the STD% ([3]; 1H-residue H1Galα) was 74%. The STD-AF ([3]; 1H-residue H1Galα) was 0.0276, the STD% ([3]; 1H-residue H1Galβ) was 80% and the STD-AF ([3]; 1H-residue H1Galβ) was 0.0298. The STD% ([3]; 1H-residue H2Galα) was 38%, the STD-AF ([3]; 1H-residue H2Galα) was 0.0142 and the STD% ([3]; 1H-residue H2Galβ) was 34%. It also gave an STD-AF ([3]; 1H-residue H2Galβ) of 0.0129, an STD% ([3]; 1H-residue H2Glca / H2Glcα) of 39% and an STD-AF ([3]; 1H-residue H2Glca / H2Glcα) of 0.0146. It also gave an STD% ([3]; 1H-residue H2Glcb / H2Glcβ) of 36%, an STD-AF ([3]; 1H-residue H2Glcb / H2Glcβ) of 0.0135 and an STD% ([3]; 1H-residue H3Galβ) of 29%. The STD-AF ([3]; 1H-residue H3Galβ) was 0.0108, the STD% ([3]; 1H-residue H3Glcb / H3Glcβ) was 46% and the STD-AF ([3]; 1H-residue H3Glcb / H3Glcβ) was 0.0172. For the same molecule, the STD% ([3]; 1H-residue H4Galβ) was 82%, the STD-AF ([3]; 1H-residue H4Galβ) was 0.0307 and the STD% ([3]; 1H-residue H5Galβ) was 100%. The STD-AF ([3]; 1H-residue H5Galβ) was 0.0374, the STD% ([3]; 1H-residue H5Glcβ) was 44% and the STD-AF ([3]; 1H-residue H5Glcβ) was 0.0163. The STD% ([3]; 1H-residue MetFuc) was 20% and the STD-AF ([3]; 1H-residue MetFuc) was 0.0074.
